Laboratory results reported in US20030207813A1, “Retroviral protease inhibitor combinations” (priority 1995, published 2003).

Tests used:
HIV-1NL4-3 = assay: microbe, parasite or virus in culture; format: cell-based; settings: Human immunodeficiency virus 1, NL4; for EC90: Table 7, read-out: Virus Isolate (EC90 nM) NL4; for EC50: Table 8, read-out: Virus Isolate (EC50 nM) NL4
Source text: (§1) RF represents the HIV-1 strain HIV-LRF and RFR represents a mixture of resistant strains obtained by selection of RF against the compound of Example 1. […] RFR2 represents a mixture of resistant strains obtained by cloning RFR by three rounds of growth at limiting dilution. […] RFRR represents a mixture of resistant strains obtained by selection of RF against the compounds of Examples 1 and 2 and then cloning by three rounds of growth at limiting dilution. […] SF162 represents the HIV-1 strain SF-162 and SF162R represents a mixture of resistant strains obtained by selection of SF162 against the compound of Example 1. […] 89-959 represents the HIV-1 strain 89-959 and 89-959R represents a mixture of resistant strains obtained by selection of 89-959 against the compound of Example 2. […] NL4 represents the HIV-1 strain HIV-1NL4-3. NL4(G48V) represents a strain having a synthetically generated site-directed mutation in the protease from glycine to valine at amino acid position number 48. NL4(I84V) represents a strain having a synthetically generated site-directed mutation in the protease from isoleucine to valine at amino acid position number 84. NL4(R8Q,M46I) represents a strain having synthetically generated site-directed mutations in the protease from arginine to glutamine at amino acid position number 8 and methionine to isoleucine at amino acid position number 46.

NL4(G48V) = assay: Viral isolate resistance assay per Markowitz et al., NL4(G48V); format: cell-based, HIV-1; settings: Human immunodeficiency virus 1, Table 7
Source text: as §1

NL4(I84V) = assay: Viral isolate resistance assay per Markowitz et al., NL4(I84V); format: cell-based, HIV-1; settings: Human immunodeficiency virus 1, Table 7
Source text: as §1

NL4(R8Q,M46I) = assay: Viral isolate resistance assay per Markowitz et al., NL4(R8Q,M46I); format: cell-based, HIV-1; settings: Human immunodeficiency virus 1, read-out: Virus Isolate (EC50 nM) NL4(R8O, M46I)
Source text: (§2) RF represents the HIV-1 strain HIV-LRF and RFR represents a mixture of resistant strains obtained by selection of RF against the compound of Example 1. RFR comprises a mixture of viral strains having protease genotypes of G48V (14/40 clones); G48V, V82A (18/40 clones); G48V, L90S (2/40 clones); G48V, 154T, V82A (1/40 clones); G48M (1/40 clones); G48V, Q61H (1/40 clones); V13I, G48V (1/40 clones); G48V, F53L, V82A (1/40 clones); and G48V, V82A, C95Y (1/40 clones). RFR2 represents a mixture of resistant strains obtained by cloning RFR by three rounds of growth at limiting dilution. RFR2 comprises a mixture of viral strains having protease genotypes of G48V, V82A (13/15 clones); G17E, G48V, V82A (1/15 clones); and G48V, V82A, N37D, N88D (1/15 clones). RFRR represents a mixture of resistant strains obtained by selection of RF against the compounds of Examples 1 and 2 and then cloning by three rounds of growth at limiting dilution. RFRR comprises a mixture of viral strains having protease genotypes of G48V, 154T, L63P, V82A (7/9 clones); G48V, 154T, L63P, V82A, N88S (1/9 clones); and G48V, 154T, L63P, G73M, V82A (1/9 clones). SF162 represents the HIV-1 strain SF-162 and SF162R represents a mixture of resistant strains obtained by selection of SF162 against the compound of Example 1. SF162R comprises a mixture of viral strains having protease genotypes of M461, F53L, L63P, A71V, N88D (2/3 clones); and M46I, F53L, L63P, A71V, N88D, Q92R (1/3 clones). 89-959 represents the HIV-1 strain 89-959 and 89-959R represents a mixture of resistant strains obtained by selection of 89-959 against the compound of Example 2. 89-959R comprises a mixture of viral strains having protease genotypes of N88S (4/5 clones); and D25N, T26A, D30N, D37N, R41K, G73D, R87K, N88S (1/4 clones). NL4 represents the HIV-1 strain HIV-1NL4-3. NL4(G48V) represents a strain having a synthetically generated site-directed mutation in the protease from glycine to valine at amino acid position number 48. […]

NL4(P22-538) = assay: Viral isolate resistance assay per Markowitz et al., NL4(P22-538); format: cell-based, HIV-1; settings: Human immunodeficiency virus 1; Table 9; selected against Example 10, 22 passages; read-out: Virus Isolate (EC50 nM) NL4(P22-538)
Source text: as §2, with “48. NL4(I84V) represents a strain having a synthetically generated site-directed mutation in the protease from isoleucine to valine at amino acid position number 84. NL4(R8Q,M46I) represents a strain having synthetically generated site-directed mutations in the protease from arginine to glutamine at amino acid position number 8 and methionine to isoleucine at amino acid position number 46. NL4(P22-538) represents a mixture of resistant strains obtained by selection of HIV-1NL4-3 against the compound of Example 10 after 22 passages comprising protease genotypes M46I, L63P, A71V, V82F, I84V (4/10); M46I, L63P, V82F, I84V (3/10); and M46I, A71V, V82F, I84V (3/10). NL4(P37-538) represents resistant strains obtained by selection of HIV-1NL4-3 against the compound of Example 10 after 37 passages comprising protease genotype M46I, L63P, A71V, 184A. NL4(538/524) represents resistant strains obtained by selection of NL4(P22-538) against the compound of Example 5 after 24 passages comprising protease genotype M46I, L63P, A71V, 184A. NL4(538/P7-AG) represents a mixture of resistant strains obtained by selection of NL4(P22-538) against the compound of Example 12 after 7 passages comprising protease genotypes M46I, L63P, A71V, 184A; and V321, V82I. NL4(538/P24-AG) represents resistant strains obtained by selection of NL4(P22-538) against the compound of Example 12 after 24 passages comprising protease genotype M46I, L63P, A71V, 184A.” for “48.”

NL4(P37-538) = assay: Viral isolate resistance assay per Markowitz et al., NL4(P37-538); format: cell-based, HIV-1; settings: Human immunodeficiency virus 1; Table 9; selected against Example 10, 37 passages; read-out: Virus Isolate (EC50 nM) NL4(P37-538)
Source text: (§3) RF represents the HIV-1 strain HIV-LRF and RFR represents a mixture of resistant strains obtained by selection of RF against the compound of Example 1. RFR comprises a mixture of viral strains having protease genotypes of G48V (14/40 clones); G48V, V82A (18/40 clones); G48V, L90S (2/40 clones); G48V, 154T, V82A (1/40 clones); G48M (1/40 clones); G48V, Q61H (1/40 clones); V13I, G48V (1/40 clones); G48V, F53L, V82A (1/40 clones); and G48V, V82A, C95Y (1/40 clones). RFR2 represents a mixture of resistant strains obtained by cloning RFR by three rounds of growth at limiting dilution. RFR2 comprises a mixture of viral strains having protease genotypes of G48V, V82A (13/15 clones); G17E, G48V, V82A (1/15 clones); and G48V, V82A, N37D, N88D (1/15 clones). RFRR represents a mixture of resistant strains obtained by selection of RF against the compounds of Examples 1 and 2 and then cloning by three rounds of growth at limiting dilution. RFRR comprises a mixture of viral strains having protease genotypes of G48V, 154T, L63P, V82A (7/9 clones); G48V, 154T, L63P, V82A, N88S (1/9 clones); and G48V, 154T, L63P, G73M, V82A (1/9 clones). SF162 represents the HIV-1 strain SF-162 and SF162R represents a mixture of resistant strains obtained by selection of SF162 against the compound of Example 1. SF162R comprises a mixture of viral strains having protease genotypes of M461, F53L, L63P, A71V, N88D (2/3 clones); and M46I, F53L, L63P, A71V, N88D, Q92R (1/3 clones). 89-959 represents the HIV-1 strain 89-959 and 89-959R represents a mixture of resistant strains obtained by selection of 89-959 against the compound of Example 2. 89-959R comprises a mixture of viral strains having protease genotypes of N88S (4/5 clones); and D25N, T26A, D30N, D37N, R41K, G73D, R87K, N88S (1/4 clones). NL4 represents the HIV-1 strain HIV-1NL4-3. NL4(G48V) represents a strain having a synthetically generated site-directed mutation in the protease from glycine to valine at amino acid position number 48. NL4(I84V) represents a strain having a synthetically generated site-directed mutation in the protease from isoleucine to valine at amino acid position number 84. NL4(R8Q,M46I) represents a strain having synthetically generated site-directed mutations in the protease from arginine to glutamine at amino acid position number 8 and methionine to isoleucine at amino acid position number 46. NL4(P22-538) represents a mixture of resistant strains obtained by selection of HIV-1NL4-3 against the compound of Example 10 after 22 passages comprising protease genotypes M46I, L63P, A71V, V82F, I84V (4/10); M46I, L63P, V82F, I84V (3/10); and M46I, A71V, V82F, I84V (3/10). NL4(P37-538) represents resistant strains obtained by selection of HIV-1NL4-3 against the compound of Example 10 after 37 passages comprising protease genotype M46I, L63P, A71V, 184A. NL4(538/524) represents resistant strains obtained by selection of NL4(P22-538) against the compound of Example 5 after 24 passages comprising protease genotype M46I, L63P, A71V, 184A. NL4(538/P7-AG) represents a mixture of resistant strains obtained by selection of NL4(P22-538) against the compound of Example 12 after 7 passages comprising protease genotypes M46I, L63P, A71V, 184A; and V321, V82I. NL4(538/P24-AG) represents resistant strains obtained by selection of NL4(P22-538) against the compound of Example 12 after 24 passages comprising protease genotype M46I, L63P, A71V, 184A. NLA(P19-003) represents resistant strains obtained by selection of HIV-1^NL4-3 against the compound of Example 9 after 19 passages comprising protease genotype R8K, M46I. NL4(P34-003) represents resistant strains obtained by selection of HIV-1^NL4-3 against the compound of Example 9 after 34 passages comprising protease genotype R8K, M46I, L63P, A71V, L90M.
The viral isolate resistance results summarized in Tables 7-11 were generated according to the assay procedures described by Markowitz et al., Journal of Virology, vol. […]

NL4(538/524) = assay: Viral isolate resistance assay per Markowitz et al., NL4(538/524); format: cell-based, HIV-1; settings: Human immunodeficiency virus 1; Table 10; NL4(P22-538) selected against Example 5, 24 passages
Source text: as §3, with “NLA(P19-003) represents resistant strains obtained by selection of HIV-1^NL4-3 against the compound of Example 9 after 19 passages comprising protease genotype R8K, M46I. NL4(P34-003) represents resistant strains obtained by selection of HIV-1^NL4-3 against the compound of Example 9 after 34 passages comprising protease genotype R8K, M46I, L63P, A71V, L90M.” left out

NL4(538/P7-AG) = assay: Viral isolate resistance assay per Markowitz et al., NL4(538/P7-AG); format: cell-based, HIV-1; settings: Human immunodeficiency virus 1; Table 10; NL4(P22-538) selected against Example 12, 7 passages
Source text: as §3, with “NLA(P19-003) represents resistant strains obtained by selection of HIV-1^NL4-3 against the compound of Example 9 after 19 passages comprising protease genotype R8K, M46I. NL4(P34-003) represents resistant strains obtained by selection of HIV-1^NL4-3 against the compound of Example 9 after 34 passages comprising protease genotype R8K, M46I, L63P, A71V, L90M.” left out

NL4(538/P24-AG) = assay: Viral isolate resistance assay per Markowitz et al., NL4(538/P24-AG); format: cell-based, HIV-1; settings: Human immunodeficiency virus 1; Table 10; NL4(P22-538) selected against Example 12, 24 passages
Source text: as §3, with “NLA(P19-003) represents resistant strains obtained by selection of HIV-1^NL4-3 against the compound of Example 9 after 19 passages comprising protease genotype R8K, M46I. NL4(P34-003) represents resistant strains obtained by selection of HIV-1^NL4-3 against the compound of Example 9 after 34 passages comprising protease genotype R8K, M46I, L63P, A71V, L90M.” left out

NLA(P19-003) = assay: Viral isolate resistance assay per Markowitz et al., NLA(P19-003); format: cell-based, HIV-1; settings: Human immunodeficiency virus 1, read-out: Virus Isolate (EC50 nM) NLA(P19-003)
Source text: as §2

NL4(P34-003) = assay: Viral isolate resistance assay per Markowitz et al., NL4(P34-003); format: cell-based, HIV-1; settings: Human immunodeficiency virus 1; Table 11; selected against Example 9, 34 passages
Source text: as §2

Compound | EC90 (HIV-1NL4-3) | EC50 (HIV-1NL4-3) | EC90 (NL4(G48V)) | EC90 (NL4(I84V)) | EC50 (NL4(R8Q,M46I)) | EC50 (NL4(P22-538)) | EC50 (NL4(P37-538)) | EC50 (NL4(538/524)) | EC50 (NL4(538/P7-AG)) | EC50 (NL4(538/P24-AG)) | EC50 (NLA(P19-003)) | EC50 (NL4(P34-003))
Nc1cccc(CN2C(=O)N(Cc3cccc(N)c3)[C@H](Cc3ccccc3)[C@H](O)[C@@H](O)[C@H]2Cc2ccccc2)c1 [Example 13, [4R-(4α,5α,6β,7β)]-1,3-bis[(3-aminophenyl)methyl]hexahydro-5,6-dihydroxy-4,7-bis(phenylmethyl)-2H-1,3-diazepin-2-one] | 250 nM | 250 nM | 1000 nM | 6250 nM | 750 nM | 5000 nM | > 31200 nM | > 31200 nM | > 31200 nM | > 31200 nM | 1250 nM | 1250 nM
CC(C)c1nc(CN(C)C(=O)N[C@H](C(=O)N[C@@H](Cc2ccccc2)C[C@H](O)[C@H](Cc2ccccc2)NC(=O)OCc2cncs2)C(C)C)cs1 [Example 10] | 80 nM | 80 nM | 160 nM | 800 nM | 240 nM | 1600 nM | 6400 nM | 6400 nM | 6400 nM | 6400 nM | 400 nM | 400 nM
